Experimental data published in the NIST ThermoML archive (doi:10.1021/je7007632).

Columns and labels:
[1] = refractive index (Na D-line) (dimensionless); settings: 101.33 kPa, Liquid, Standard Abbe refractometry
[2] = refractive index (Na D-line) (dimensionless); xn = mol fraction of the nth substance listed; settings: 101 kPa, Liquid, Standard Abbe refractometry

CC(O)CCO (centres undefined) [1,3-butanediol]
[1]
Settings | refractive index
293.15 K | 1.4412
298.15 K | 1.4391
303.15 K | 1.437
308.15 K | 1.4349
313.15 K | 1.4329
318.15 K | 1.4308

CC(O)CCO (centres undefined) [1,3-butanediol] + NC=O
refractive index, [2]
Settings | x2 = 0 | x2 = 0.1061 | x2 = 0.2004 | x2 = 0.3068 | x2 = 0.4026 | x2 = 0.5033 | x2 = 0.6046 | x2 = 0.7013 | x2 = 0.8073 | x2 = 0.9058
293.15 K | 1.4412 | 1.441 | 1.4409 | 1.4411 | 1.4414 | 1.4419 | 1.4425 | 1.4434 | 1.4445 | 1.4459
298.15 K | 1.4391 | 1.4389 | 1.4389 | 1.4391 | 1.4395 | 1.4401 | 1.4409 | 1.4419 | 1.4432 | 1.4448
303.15 K | 1.437 | 1.4368 | 1.4369 | 1.4372 | 1.4377 | 1.4384 | 1.4393 | 1.4404 | 1.4419 | 1.4437
308.15 K | 1.4349 | 1.4348 | 1.4349 | 1.4352 | 1.4358 | 1.4366 | 1.4377 | 1.4389 | 1.4406 | 1.4427
313.15 K | 1.4329 | 1.4328 | 1.4329 | 1.4333 | 1.434 | 1.4349 | 1.436 | 1.4374 | 1.4393 | 1.4415
318.15 K | 1.4308 | 1.4307 | 1.4309 | 1.4314 | 1.4321 | 1.4331 | 1.4344 | 1.4359 | 1.4379 | 1.4404

OCCCCO [1,4-butanediol]
[1]
Settings | refractive index
293.15 K | 1.4451
298.15 K | 1.4431
303.15 K | 1.4411
308.15 K | 1.4391
313.15 K | 1.4372
318.15 K | 1.4352

OCCCCO [1,4-butanediol] + NC=O
refractive index, [2]
Settings | x2 = 0 | x2 = 0.1052 | x2 = 0.1988 | x2 = 0.3041 | x2 = 0.4002 | x2 = 0.5009 | x2 = 0.6022 | x2 = 0.6992 | x2 = 0.8051 | x2 = 0.905
293.15 K | 1.4451 | 1.4445 | 1.444 | 1.4437 | 1.4436 | 1.4437 | 1.444 | 1.4445 | 1.4452 | 1.4463
298.15 K | 1.4431 | 1.4425 | 1.442 | 1.4418 | 1.4418 | 1.442 | 1.4424 | 1.4431 | 1.4439 | 1.4452
303.15 K | 1.4411 | 1.4405 | 1.44 | 1.4399 | 1.44 | 1.4403 | 1.4408 | 1.4416 | 1.4426 | 1.4441
308.15 K | 1.4391 | 1.4385 | 1.438 | 1.438 | 1.4382 | 1.4386 | 1.4392 | 1.4401 | 1.4413 | 1.443
313.15 K | 1.4372 | 1.4365 | 1.4361 | 1.4361 | 1.4364 | 1.4369 | 1.4376 | 1.4386 | 1.44 | 1.4419
318.15 K | 1.4352 | 1.4345 | 1.4341 | 1.4342 | 1.4345 | 1.4351 | 1.4359 | 1.437 | 1.4386 | 1.4407

CCCCO [butan-1-ol]
[1]
Settings | refractive index
293.15 K | 1.3994
298.15 K | 1.3974
303.15 K | 1.3953
308.15 K | 1.3933
313.15 K | 1.3913
318.15 K | 1.3893

CCCCO [butan-1-ol] + NC=O
[2], x2 = 0
Settings | refractive index
293.15 K | 1.3994
298.15 K | 1.3974
303.15 K | 1.3953
308.15 K | 1.3933
313.15 K | 1.3913
318.15 K | 1.3893

CCC(C)O (centres undefined) [butan-2-ol]
[1]
Settings | refractive index
293.15 K | 1.3972
298.15 K | 1.3951
303.15 K | 1.3931
308.15 K | 1.3911
313.15 K | 1.3891
318.15 K | 1.3871

CCC(C)O (centres undefined) [butan-2-ol] + NC=O
[2], x2 = 0
Settings | refractive index
293.15 K | 1.3972
298.15 K | 1.3951
303.15 K | 1.3931
308.15 K | 1.3911
313.15 K | 1.3891
318.15 K | 1.3871

NC=O [formamide]
[1]
Settings | refractive index
293.15 K | 1.4475
298.15 K | 1.4467
303.15 K | 1.4459
308.15 K | 1.4451
313.15 K | 1.4442
318.15 K | 1.4433

NC=O [formamide] + CC(O)CCO
[2], x1 = 1
Settings | refractive index
293.15 K | 1.4475
298.15 K | 1.4467
303.15 K | 1.4459
308.15 K | 1.4451
313.15 K | 1.4442
318.15 K | 1.4433

NC=O [formamide] + CCC(C)O
refractive index, [2]
Settings | x1 = 0.1043 | x1 = 0.2043 | x1 = 0.3056 | x1 = 0.4083 | x1 = 0.5093 | x1 = 0.6063 | x1 = 0.7068 | x1 = 0.8042 | x1 = 0.9024 | x1 = 1
293.15 K | 1.3993 | 1.4017 | 1.4045 | 1.4079 | 1.4119 | 1.4165 | 1.4222 | 1.4289 | 1.4372 | 1.4475
298.15 K | 1.3973 | 1.3996 | 1.4025 | 1.4061 | 1.4102 | 1.4149 | 1.4207 | 1.4276 | 1.4361 | 1.4467
303.15 K | 1.3953 | 1.3977 | 1.4007 | 1.4043 | 1.4085 | 1.4133 | 1.4193 | 1.4263 | 1.435 | 1.4459
308.15 K | 1.3933 | 1.3958 | 1.3989 | 1.4026 | 1.4068 | 1.4118 | 1.4179 | 1.4251 | 1.434 | 1.4451
313.15 K | 1.3913 | 1.3939 | 1.397 | 1.4008 | 1.4051 | 1.4102 | 1.4164 | 1.4237 | 1.4328 | 1.4442
318.15 K | 1.3893 | 1.3919 | 1.3951 | 1.399 | 1.4034 | 1.4086 | 1.4149 | 1.4224 | 1.4317 | 1.4433

NC=O [formamide] + CCCCO
refractive index, [2]
Settings | x1 = 0.1093 | x1 = 0.2057 | x1 = 0.3138 | x1 = 0.4104 | x1 = 0.5115 | x1 = 0.6124 | x1 = 0.7081 | x1 = 0.8123 | x1 = 0.9086 | x1 = 1
293.15 K | 1.4023 | 1.4052 | 1.4086 | 1.4119 | 1.4158 | 1.4203 | 1.4252 | 1.4316 | 1.4389 | 1.4475
298.15 K | 1.4003 | 1.4032 | 1.4067 | 1.4101 | 1.4141 | 1.4187 | 1.4238 | 1.4303 | 1.4378 | 1.4467
303.15 K | 1.3983 | 1.4012 | 1.4048 | 1.4083 | 1.4124 | 1.4171 | 1.4223 | 1.429 | 1.4367 | 1.4459
308.15 K | 1.3963 | 1.3992 | 1.4029 | 1.4065 | 1.4107 | 1.4155 | 1.4208 | 1.4277 | 1.4357 | 1.4451
313.15 K | 1.3943 | 1.3973 | 1.4011 | 1.4047 | 1.409 | 1.4139 | 1.4194 | 1.4264 | 1.4345 | 1.4442
318.15 K | 1.3923 | 1.3954 | 1.3992 | 1.4029 | 1.4073 | 1.4123 | 1.4179 | 1.4251 | 1.4334 | 1.4433

NC=O [formamide] + OCCCCO
[2], x1 = 1
Settings | refractive index
293.15 K | 1.4475
298.15 K | 1.4467
303.15 K | 1.4459
308.15 K | 1.4451
313.15 K | 1.4442
318.15 K | 1.4433
